Reference: US20230123334A1, “AMINO LIPID COMPOUND, PREPARATION METHOD THEREFOR, AND APPLICATION THEREOF” (SHENZHEN SHENXIN BIOTECHNOLOGY CO., LTD., priority 2020, published 2023)

Tested on: HEK293 cells
Assay: Preliminary screening as mRNA vectors, EGFP mRNA transfection of HEK293 cells
Type: cell-based
Conditions: EGFP mRNA 50 ng per well, 96-well plates; percentage of GFP fluorescent cells relative to total number of cells (Hoechst)
Outline: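 Screening format: EGFP mRNA transfection (50 ng/well) into HEK293 in 10% FBS-supplemented DMEM. Percent green fluorescent cells, normalised to Hoechst nuclear count, gave the value; Lipofectamine2000 was the reference transfectant.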

CCCCCCCCCCCCCCCCNc1nc(NCCCN2CCOCC2)nc(SCCCCCCC)n1 [Compound D8S7N16]
Absolute mRNA transfection efficiency in HEK293 cells: 1.2%

CCCCCCCCCCSc1nc(NCCCCCCCC)nc(NCCN(CC)CC)n1 [Compound D7S10N8]
Absolute mRNA transfection efficiency in HEK293 cells: 0.3%

CCCCCCCCCCCSc1nc(NCCN(CC)CC)nc(SCCCCCCCC)n1 [Compound D7S8S11]
Absolute mRNA transfection efficiency in HEK293 cells: 3.2%

CCCCCCCCCCCCCCSc1nc(NCCCCCCCCCCCC)nc(NCCN2CCCCC2)n1 [Compound D4S14N12]
Absolute mRNA transfection efficiency in HEK293 cells: 12.6%

CCCCCCCSc1nc(NCCCCCC)nc(NCC2CCN(C)CC2)n1 [Compound D10S7N6]
Absolute mRNA transfection efficiency in HEK293 cells: 2.0%

CCCCCCCCCCCCCCCCCCSc1nc(NCCCCCCC)nc(NCC2CCN(C)CC2)n1 [Compound D10S18N7]
Absolute mRNA transfection efficiency in HEK293 cells: 45.8%

CCCCCCCCCCCCN(CCCCCCCCCCCC)c1nc(NCCN2CCN(C)CC2)nc(SCCCCCCCCC)n1 [D5S9^2N12]
Absolute mRNA transfection efficiency in HEK293 cells: 0.4%

CCCCCCCCCCCCSc1nc(NCCN2CCN(C)CC2)nc(SCCCCCC)n1 [Compound D5S6S12]
Absolute mRNA transfection efficiency in HEK293 cells: 14.0%

CCCCCCCCCCCCCCCCNc1nc(NCCN(C)C)nc(SCCCCCC)n1 [Compound D1S6N16]
Absolute mRNA transfection efficiency in HEK293 cells: 3.3%

CCCCCCCCCSc1nc(NCCCCCCCC)nc(NCCCN(C)C)n1 [Compound D6S9N8]
Absolute mRNA transfection efficiency in HEK293 cells: 7.5%

CCCCCCNc1nc(NCCCN2CCN(C)CC2)nc(SCCCCCC)n1 [Compound D9S6N6]
Absolute mRNA transfection efficiency in HEK293 cells: 1.5%

CCCCCCCCCCCNc1nc(NCCN(CC)CC)nc(SCCCCCCCCC)n1 [Compound D7S9N11]
Absolute mRNA transfection efficiency in HEK293 cells: 36.8%

CCCCCCCCCCCCCNc1nc(NCCN(C)C)nc(SCCCCCCCCCCCC)n1 [Compound D1S12N13]
Absolute mRNA transfection efficiency in HEK293 cells: 1.2%

CCCCCCCCCCSc1nc(NCCCCCC)nc(NCCN2CCN(C)CC2)n1 [Compound D5S10N6]
Absolute mRNA transfection efficiency in HEK293 cells: 1.1%

CCCCCCCCCCCCCCCCCCNc1nc(NCCN2CCN(C)CC2)nc(SCCCCCCCCCC)n1 [Compound D5S10N18]
Absolute mRNA transfection efficiency in HEK293 cells: 2.3%

CCCCCCCCCCCCCCCNc1nc(NCCN2CCOCC2)nc(SCCCCCCCCCCCCCCC)n1 [Compound D2S15N15]
Absolute mRNA transfection efficiency in HEK293 cells: 0.2%

CCCCCCCCCCCCCCCCCCSc1nc(NCC2CCN(C)CC2)nc(N(CCCCCCCCCCCC)CCCCCCCCCCCC)n1 [D10S18^2N12]
Absolute mRNA transfection efficiency in HEK293 cells: 0.0%

CCCCCCCCCCCCSc1nc(NCCCCCCC)nc(NCCN2CCCC2)n1 [Compound D3S12N7]
Absolute mRNA transfection efficiency in HEK293 cells: 9.2%

CCCCCCCCCCCCCCCCNc1nc(NCCCN(C)C)nc(SCCCCCCCCC)n1 [Compound D6S9N16]
Absolute mRNA transfection efficiency in HEK293 cells: 46.2%

CCCCCCCCCCCCCCSc1nc(NCCCCCCCC)nc(NCCN2CCN(C)CC2)n1 [Compound D5S14N8]
Absolute mRNA transfection efficiency in HEK293 cells: 65.6%

CCCCCCCCCCCCCCCCSc1nc(NCCCCCC)nc(NCCCN(C)C)n1 [Compound D6S16N6]
Absolute mRNA transfection efficiency in HEK293 cells: 96.4%

CCCCCCCCCCCCN(CCCCCCCCCCCC)c1nc(NCCN2CCN(C)CC2)nc(SCCCCCCCCCC)n1 [D5S10^2N12]
Absolute mRNA transfection efficiency in HEK293 cells: 0.1%

CCCCCCCCCCCCCCCNc1nc(NCCCN(C)C)nc(SCCCCCCC)n1 [Compound D6S7N15]
Absolute mRNA transfection efficiency in HEK293 cells: 37.9%

CCCCCCCCCCCCCCCCCCSc1nc(NCCCCCC)nc(NCCCN2CCOCC2)n1 [Compound D8S18N6]
Absolute mRNA transfection efficiency in HEK293 cells: 1.0%

CCCCCCCCCCCSc1nc(NCCCCCCCCC)nc(NCCN2CCCCC2)n1 [Compound D4S11N9]
Absolute mRNA transfection efficiency in HEK293 cells: 4.2%

CCCCCCCCCCCCCCCCNc1nc(NCCN2CCCCC2)nc(SCCCCCC)n1 [Compound D4S6N16]
Absolute mRNA transfection efficiency in HEK293 cells: 0.5%

CCCCCCCCCCCCCCSc1nc(NCCCCCCCCCCCCC)nc(NCCCN(C)C)n1 [Compound D6S14N13]
Absolute mRNA transfection efficiency in HEK293 cells: 5.2%
